Where two headings read alike, the source gives them in different places.
Assays:
[1] = cited from earlier work
α-mannosidase [2] = target: T1, α-mannosidase (Canavalia ensiformis, UniProt C0HJB3); assay: glycosidase inhibition, α-mannosidase; type: biochemical; conditions: α-mannosidase from jack beans, pH 5.6
T1 sequence (C0HJB3 1-981): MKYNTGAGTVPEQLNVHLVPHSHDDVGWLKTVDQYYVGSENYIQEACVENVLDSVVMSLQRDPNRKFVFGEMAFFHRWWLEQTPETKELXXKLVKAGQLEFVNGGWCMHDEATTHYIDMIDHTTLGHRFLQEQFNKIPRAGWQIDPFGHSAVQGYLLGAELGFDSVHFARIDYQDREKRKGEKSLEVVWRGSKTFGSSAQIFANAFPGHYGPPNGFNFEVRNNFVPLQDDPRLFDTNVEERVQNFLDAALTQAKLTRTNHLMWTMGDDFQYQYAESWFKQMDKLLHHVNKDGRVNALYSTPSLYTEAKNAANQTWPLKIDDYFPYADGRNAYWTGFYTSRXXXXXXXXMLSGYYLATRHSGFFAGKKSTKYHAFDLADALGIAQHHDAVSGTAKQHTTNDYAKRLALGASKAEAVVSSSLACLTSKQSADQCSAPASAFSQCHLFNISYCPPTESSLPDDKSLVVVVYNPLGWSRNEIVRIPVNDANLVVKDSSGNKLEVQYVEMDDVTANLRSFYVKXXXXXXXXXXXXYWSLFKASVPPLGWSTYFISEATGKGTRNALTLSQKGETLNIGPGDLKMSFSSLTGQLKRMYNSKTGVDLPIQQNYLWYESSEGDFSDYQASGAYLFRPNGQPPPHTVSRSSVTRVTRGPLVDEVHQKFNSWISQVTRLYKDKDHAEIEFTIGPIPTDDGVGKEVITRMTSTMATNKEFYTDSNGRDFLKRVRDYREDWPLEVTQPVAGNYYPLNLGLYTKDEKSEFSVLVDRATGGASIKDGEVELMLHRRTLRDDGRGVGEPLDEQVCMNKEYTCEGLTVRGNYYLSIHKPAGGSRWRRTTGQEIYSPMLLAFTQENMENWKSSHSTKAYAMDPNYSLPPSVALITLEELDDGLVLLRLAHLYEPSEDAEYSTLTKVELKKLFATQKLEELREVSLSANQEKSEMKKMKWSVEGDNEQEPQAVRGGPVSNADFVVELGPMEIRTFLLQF
Text: (§1) The glycosidase inhibitory activities (IC50 (µM)) of amidines 5 and 6 on a panel of six glycosidases are presented in table 1 and compared with structurally related isofagomine (3) and amidine 4.

β-glucosidase [3] = assay: glycosidase inhibition, β-glucosidase; type: biochemical; conditions: β-glucosidase from almonds, pH 6.8
Text: as §1

β-galactosidase [4] = target: T2, β-galactosidase (Aspergillus oryzae, UniProt Q2UCU3); assay: glycosidase inhibition, β-galactosidase (Aspergillus oryzae); type: biochemical
T2 sequence (Q2UCU3 19-1005): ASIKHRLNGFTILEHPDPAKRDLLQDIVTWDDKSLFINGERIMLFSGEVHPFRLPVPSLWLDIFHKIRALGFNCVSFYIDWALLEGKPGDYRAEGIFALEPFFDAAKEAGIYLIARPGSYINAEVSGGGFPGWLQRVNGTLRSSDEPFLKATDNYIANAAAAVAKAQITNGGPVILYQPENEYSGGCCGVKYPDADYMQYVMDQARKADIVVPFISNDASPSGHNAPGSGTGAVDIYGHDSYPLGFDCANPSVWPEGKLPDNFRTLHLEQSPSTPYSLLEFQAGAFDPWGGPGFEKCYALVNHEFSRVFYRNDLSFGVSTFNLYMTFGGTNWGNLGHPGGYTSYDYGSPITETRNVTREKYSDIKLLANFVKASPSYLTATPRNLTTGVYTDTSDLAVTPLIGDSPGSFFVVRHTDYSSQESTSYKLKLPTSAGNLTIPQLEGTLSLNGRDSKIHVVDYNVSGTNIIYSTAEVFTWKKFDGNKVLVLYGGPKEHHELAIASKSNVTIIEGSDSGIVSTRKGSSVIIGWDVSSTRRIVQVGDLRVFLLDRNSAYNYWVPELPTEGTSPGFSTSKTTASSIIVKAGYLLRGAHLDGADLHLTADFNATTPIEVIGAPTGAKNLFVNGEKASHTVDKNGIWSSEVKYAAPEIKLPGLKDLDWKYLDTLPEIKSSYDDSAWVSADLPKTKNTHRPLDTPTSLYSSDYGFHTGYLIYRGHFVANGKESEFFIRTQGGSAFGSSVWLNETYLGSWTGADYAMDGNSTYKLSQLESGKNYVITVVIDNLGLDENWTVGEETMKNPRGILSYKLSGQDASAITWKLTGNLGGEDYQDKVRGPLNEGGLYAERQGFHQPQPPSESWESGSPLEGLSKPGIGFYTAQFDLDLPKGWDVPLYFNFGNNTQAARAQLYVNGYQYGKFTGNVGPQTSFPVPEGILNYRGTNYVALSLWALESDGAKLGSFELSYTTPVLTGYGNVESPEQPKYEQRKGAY
Text: as §1

[5] = pKa determination by NMR titration in D2O; type: physicochemical; conditions: for pH* at which degradation started: during NMR titration in D2O; for pKa: D2O
Text: The pKa values for azasugars have been determined by NMR spectroscopy in other studies. This methodology was also applied in this study to determine the pKa value of 6. […] The sigmoidal curve is missing points at high pH* values (greater than 11) because 6 started degrading at roughly pH* 10.5. Recording of both a ^1H NMR and ^13C HSQC spectra at each titration point allowed us to track the changes in chemical shifts at pH levels higher than where the degradation initially started. The pKa of amidine 5 was determined at even lower accuracy than for 6, because it started degrading at roughly pH* 9.4, where there is no indication of 5 being deprotonated.

β-galactosidase [6] = target: β-galactosidase (Escherichia coli, UniProt P00722); assay: glycosidase inhibition, β-galactosidase (Escherichia coli); type: biochemical
β-galactosidase (Escherichia coli, UniProt P00722), sequence (P00722 2-1024 limits assumed): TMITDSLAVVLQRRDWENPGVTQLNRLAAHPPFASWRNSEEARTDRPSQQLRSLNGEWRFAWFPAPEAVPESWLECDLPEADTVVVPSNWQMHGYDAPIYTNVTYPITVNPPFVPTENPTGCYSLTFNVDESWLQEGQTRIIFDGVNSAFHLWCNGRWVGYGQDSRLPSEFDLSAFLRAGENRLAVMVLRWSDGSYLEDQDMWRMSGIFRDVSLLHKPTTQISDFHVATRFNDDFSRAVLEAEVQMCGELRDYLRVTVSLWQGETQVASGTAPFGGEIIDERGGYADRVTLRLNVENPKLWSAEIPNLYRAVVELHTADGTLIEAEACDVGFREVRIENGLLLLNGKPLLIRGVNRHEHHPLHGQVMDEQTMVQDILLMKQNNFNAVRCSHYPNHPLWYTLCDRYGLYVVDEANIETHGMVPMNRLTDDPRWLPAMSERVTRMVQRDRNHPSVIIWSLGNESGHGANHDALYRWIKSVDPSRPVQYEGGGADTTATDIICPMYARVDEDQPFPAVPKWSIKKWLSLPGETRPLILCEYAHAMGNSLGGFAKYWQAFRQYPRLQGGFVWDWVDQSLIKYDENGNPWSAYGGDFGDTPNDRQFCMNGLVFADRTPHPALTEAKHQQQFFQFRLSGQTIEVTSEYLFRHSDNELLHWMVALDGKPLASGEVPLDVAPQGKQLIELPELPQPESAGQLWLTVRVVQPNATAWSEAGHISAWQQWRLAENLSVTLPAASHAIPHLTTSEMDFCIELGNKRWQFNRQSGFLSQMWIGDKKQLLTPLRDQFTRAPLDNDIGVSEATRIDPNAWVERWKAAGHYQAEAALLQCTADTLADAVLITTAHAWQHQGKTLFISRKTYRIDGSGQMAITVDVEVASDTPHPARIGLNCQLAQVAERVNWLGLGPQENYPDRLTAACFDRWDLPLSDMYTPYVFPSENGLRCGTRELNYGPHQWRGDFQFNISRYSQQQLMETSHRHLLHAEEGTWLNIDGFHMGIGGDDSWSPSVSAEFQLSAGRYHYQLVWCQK
Text: as §1

α-galactosidase [7] = target: T3, α-galactosidase (Coffea arabica, UniProt Q42656); assay: glycosidase inhibition, α-galactosidase; type: biochemical
T3 sequence (Q42656 16-378): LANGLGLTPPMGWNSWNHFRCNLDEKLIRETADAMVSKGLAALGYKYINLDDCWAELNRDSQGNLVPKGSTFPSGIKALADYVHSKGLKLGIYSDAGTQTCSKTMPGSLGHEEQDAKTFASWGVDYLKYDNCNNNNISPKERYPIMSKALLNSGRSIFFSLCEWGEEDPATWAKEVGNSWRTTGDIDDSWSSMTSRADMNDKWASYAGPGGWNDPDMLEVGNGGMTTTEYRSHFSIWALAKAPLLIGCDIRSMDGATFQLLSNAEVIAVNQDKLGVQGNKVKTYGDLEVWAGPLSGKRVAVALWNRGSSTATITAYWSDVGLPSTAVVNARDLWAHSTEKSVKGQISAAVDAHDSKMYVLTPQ
Text: as §1

α-glucosidase = assay: glycosidase inhibition, α-glucosidase; type: biochemical; conditions: α-glucosidase from Saccharomyces cerevisiae, pH 6.8
Text: as §1

[8] = tested on: all tested enzymes (panel of six glycosidases); assay: glycosidase inhibition, whole panel of six glycosidases; type: biochemical; conditions: for glycosidase inhibition in words: all enzymes in the panel
Text: as §1

β-galactosidase [9] = target: T2, β-galactosidase; conditions: β-galactosidase from Aspergillus oryzae, pH 6.8; cited from earlier work
α-mannosidase [10] = target: T1, α-mannosidase; conditions: α-mannosidase from jack beans, pH 5.6; cited from earlier work
α-galactosidase [11] = target: T3, α-galactosidase; design: key to inhibition: NI = no inhibition; conditions: α-galactosidase from green coffee beans, pH 6.8; cited from earlier work
β-glucosidase [12] = conditions: cited from earlier work
[13] = β-glucosidase from almonds, pH 6.8

For `NC1=N[C@H](CO)[C@@H](O)[C@H](O)[C@H]1O` [compound 2, ᴅ-glucoamidine], the pKa [1] is listed as no less than 10.5 and the “fold stronger base than 1” value ([1]; compared with 1-deoxynojirimycin (1)) is listed as “roughly 7900 fold”.

In the case of `N=C1NC[C@@H](O)[C@H](O)[C@H]1CO` [compound 5], the IC50 (α-mannosidase [2]) is reported as greater than 50 µM, the IC50 (β-glucosidase [3]) is reported as greater than 50 µM and the IC50 (β-galactosidase [4]; β-galactosidase from Aspergillus oryzae, pH 6.8, read-out: IC50) is reported as greater than 50 µM. For the same compound, the “pH* at which degradation started” value [5] was roughly 9.4, the IC50 (β-galactosidase [6]; β-galactosidase from Escherichia coli, pH 6.8, read-out: IC50) was greater than 50 µM and the IC50 (α-galactosidase [7]; α-galactosidase from green coffee beans, pH 6.8, read-out: IC50) was greater than 50 µM. For the same compound, the IC50 (α-glucosidase) was greater than 50 µM, the “glycosidase inhibition in words” value [8] was “very poor inhibitor” and the IC50 ([8]; all tested enzymes, read-out: IC50 against all tested enzymes) was greater than 50 µM.

For `N=C1NC[C@H](CO)[C@@H](O)[C@@H]1O` [compound 4], the Ki (β-galactosidase [9]) is listed as 17400 µM, the Ki (α-mannosidase [10]) is listed as 0.75 µM and the inhibition (α-galactosidase [11]) is listed as “NI^g,i”. The Ki (β-glucosidase [12]; [13]) was 450 µM.

In the case of `N=C1[C@H](CO)[C@@H](O)[C@H](O)CN1Cc1ccccc1` [compound 6], the IC50 (α-mannosidase [2]) is reported as greater than 50 µM, the IC50 (β-glucosidase [3]) is reported as greater than 50 µM and the IC50 (β-galactosidase [4]) is reported as greater than 50 µM. The pKa ([5]; inflection point of 2-Ha chemical shift versus pH* (pH measured in D2O), read-out: pKa*) was greater than 11, the pKa ([5]; pKa* corrected with a correction factor, read-out: pKa (corrected)) was greater than 10.6 and the “pH* at which degradation started” value [5] was roughly 10.5. It also gave an IC50 (β-galactosidase [6]) greater than 50 µM, an IC50 (α-galactosidase [7]) greater than 50 µM and an IC50 (α-glucosidase) greater than 50 µM. The “glycosidase inhibition in words” value [8] was “very weak inhibitor”.

In the case of `OC[C@H]1CNC[C@@H](O)[C@@H]1O` [compound 3, isofagomine], the IC50 (β-galactosidase [9]) is listed as 270 µM, the IC50 (α-mannosidase [10]) is listed as 250 µM and the IC50 (α-galactosidase [11]) is listed as greater than 2000 µM. For the same compound, the Ki (β-glucosidase [12]; almond β-glucosidase) was 0.11 µM and the Ki (β-glucosidase [12]; [13]) was 0.11 µM.
